Tests used:
[1] = test system: human iPS cells (1231A3 strain); assay: Neural tissue / neuroepithelium formation in cell aggregates, bright field observation; format: cell-based; conditions: day 20
Method: The above human iPS cells were treated with the cell dispersion solution by using TrypLE Select (Life Technologies), further dispersed into single cells by pipetting operation, and the above human iPS cells dispersed into single cells were suspended in 100 μl of a serum-free medium at 1.2×10^4 cells per well of a non-cell-adhesive 96-well culture plate ([…], manufactured by SUMITOMO BAKELITE), and subjected to suspension culturing at 37° C., 5% CO2. As the serum-free medium (gfCDM+KSR) therefor, a serum-free medium which is a 1:1 mixture of F-12 medium and IMDM medium supplemented with 10% KSR, 450 μM 1-monothioglycerol, 1× Chemically defined lipid concentrate was used. At the time of the start of suspension culturing (day 0 after the start of suspension culturing, start of step 2), Y27632 (final concentration 20 μM) was added to the above serum-free medium. By day 2 after the start of suspension culturing, cell aggregates were formed under both conditions with preconditioning and conditions without preconditioning (step 2 completed, step 3 start). On day 3 after the start of suspension culturing, a serum-free medium (50 μl) free of Y27632 was added. On day 6 or later after the start of suspension culturing, a half amount of the medium was changed to the above serum-free medium free of Y27632 once per 2-4 days. In the half-medium change operation, a half volume, namely 75 μl, of the medium in the culture vessel was discarded, the above fresh serum-free medium (75 μl) was added to make the total medium amount 150 μl. […]
At the time of the start of suspension culturing (day 0 after the start of suspension culturing, start of step 2), the cells were cultured under the following 2 conditions including condition 1 and condition 2. As condition 1(+SAG), at the time of the start of suspension culturing, Y27632 (final concentration 20 μM) and SAG (Shh signal transduction pathway activating substance, 300 nM) were added to the above serum-free medium. As condition 2(−SAG), at the time of the start of suspension culturing, Y27632 (final concentration 20 μM) was added to the above serum-free medium and SAG was not added. By day 2 after the start of suspension culturing, cell aggregates were formed (step 2 completed, step 3 start) under both conditions. On day 3 after the start of suspension culturing, a medium (50 μl) free of Y27632, SAG and containing human recombinant BMP4 (manufactured by R&D) was added such that the final concentration of exogenous human recombinant BMP4 was 1.5 nM (55 ng/ml). On day 6 after the start of suspension culturing, a half amount of the medium was changed with a serum-free medium free of Y27632, SAG and human recombinant BMP4. Thereafter, a half amount of the medium was changed, once every 2-4 days, with the above serum-free medium free of Y27632, SAG, and human recombinant BMP4.
The thus-prepared cells were subjected to bright field observation on day 18 after the start of suspension culturing under an inverted microscope (KEYENCE) (FIG. 15).
At the time of the start of suspension culturing (day 0 after the start of suspension culturing, start of step 2), the cells were cultured under the following 2 conditions including condition 1 and condition 2. As condition 1(+SAG), at the time of the start of suspension culturing, Y27632 (final concentration 20 μM) and SAG (Shh signal transduction pathway activating substance, final concentration 30 nM) were added to the above serum-free medium. As condition 2(−SAG), at the time of the start of suspension culturing, Y27632 (final concentration 20 μM) was added to the above serum-free medium and SAG was not added. By day 2 after the start of suspension culturing, cell aggregates were formed under both conditions (step 2 completed, step 3 start). […]

[2] = test system: human iPS cells (1231A3 strain); assay: Immunostaining of aggregate sections for retinal tissue markers Chx10, Rx; format: cell-based; conditions: day 20
Method: Here, as step 3, culturing was performed under the following condition 1 and condition 2: Under condition 1(+BMP), on day 6 after the start of suspension culturing, the medium was changed to a medium free of Y27632 and containing human recombinant BMP4 (manufactured by R&D) such that the final concentration of exogenous human recombinant BMP4 was 1.5 nM (55 ng/ml) (FIG. 6B, D). Under condition 2(−BMP), on day 6 after the start of suspension culturing, a half amount of the medium was changed to a medium free of Y27632 and free of a BMP signal transduction pathway activating substance, without adding exogenous human recombinant BMP4 (FIG. 6A, C).
The thus-prepared cell aggregates on day 23 after the start of suspension culturing, which were produced from the above iPS cells that underwent a preconditioning treatment in step 1 as a starting material were fixed with 4% para-formaldehyde to prepare frozen sections. These frozen sections were immunostained for Chx10 (anti-Chx10 antibody, Exalpha, sheep), which is one of the retinal tissue markers, or Rx (anti-Rx antibody, Takara, guinea pig), which is one of the retinal tissue markers. These immunostained sections were observed under an inverted fluorescence microscope.
Cell aggregate were prepared according to the method described in Example 8 under conditions in which human iPS cells using StemFit medium as a feeder-free medium were used as a starting material, TGFβR inhibiting substance (SB431542) or BMPR inhibiting substance (LDN193189) was used in step 1, Shh signal transduction pathway activating substance was used in step 2, and BMP signal transduction pathway activating substance was added or not added in step 3. Neural tissues were formed in all the aggregates formed under all these conditions on day 23 after the start of suspension culturing. The above cell aggregates were fixed with 4% para-formaldehyde to prepare frozen sections. These frozen sections were immunostained for Chx10 (anti-Chx10 antibody, Exalpha, sheep), which is one of the retinal tissue markers, or Rx (anti-Rx antibody, Takara, guinea pig), which is one of the retinal tissue markers. These immunostained sections were observed under an fluorescence microscope. […] Furthermore, it was found from the analysis of serial sections that, in a neural tissue having a high (not less than 95%) proportion of Chx10-positive cells, Rx is also strongly positive (FIG. 9B, D, F, H).
Cell aggregates were prepared according to the method described in Example 10 by using, as a starting material, human iPS cells using Essential 8 medium as a feeder-free culturing, under conditions that TGFβR inhibiting substance (SB431542) are used in step 1, a Shh signal transduction pathway activating substance are used in step 2, and a BMP signal transduction pathway activating substance are added or are not added in step 3. The cell aggregates on day 18 after the start of suspension culturing were each fixed with 4% para-formaldehyde to prepare frozen section. These frozen sections were immunostained for Chx10 (anti-Chx10 antibody, Exalpha, sheep), which is one of the retinal tissue markers, or Rx (anti-Rx antibody, Takara, guinea pig), which is one of the retinal tissue markers, and observed under a fluorescence microscope. […] Furthermore, it was found from the analysis of serial sections that, in a neural tissue having a high (not less than 95%) proportion of Chx10-positive cells, Rx is also strongly positive. […]
A Cell aggregate was formed on day 18 after the start of suspension culturing under every conditions, and a neural tissue was formed (FIG. 14, upper panel). The above cell aggregates on day 18 after the start of suspension culturing were each fixed with 4% para-formaldehyde to prepare frozen section. […]

[3] = A83-01 0.5 μM 1 day in step 1, SAG 30 nM in step 2, BMP4 1.5 nM on day 3

| Compound | cell aggregate and neural tissue formation [1, 3] | cell aggregate and neural tissue formation ([1]; step 1 for 1 day: A83-01 0.5 μM alone or with SAG 300 nM, Purmorphamine 0.2 μM, or human recombinant Shh 50 ng/ml or 300 ng/ml, SAG 30 nM in step 2, BMP4 1.5 nM on day 3) | proportion of Chx10-positive cells in the total cells [2, 3] | proportion of Chx10-positive cells in the total cells ([2]; A83-01 0.5 μM and SAG 300 nM in step 1, substance added in step 2 (SAG 30 nM, Purmorphamine 0.2 μM or human recombinant Shh 300 ng/ml), BMP4 1.5 nM on day 3) |
| --- | --- | --- | --- | --- |
| Cc1cccc(-c2nn(C(=S)Nc3ccccc3)cc2-c2ccnc3ccccc23)n1 [A83-01, 3-(6-methyl-2-pyridinyl)-N-phenyl-4-(4-quinolinyl)-1H-pyrazole-1-carbothioamide] | a neural tissue can be formed efficiently | a neural tissue can be produced efficiently | about 20% | – |
| c1ccc2c(Oc3nc(Nc4ccc(N5CCOCC5)cc4)c4ncn(C5CCCCC5)c4n3)cccc2c1 [Purmorphamine, 9-cyclohexyl-N-[4-(4-morpholinyl)phenyl]-2-(1-naphthalenyloxy)-9H-purin-6-amine] | – | – | – | about 90% |

— patent publication US12492373B2, “Production method for nerve tissue” (Racthera Co., Ltd., priority 2014, dated 2025)
